Drawing on PubChem BioAssay (NCI), this text covers GI50 and TGI for 3 compounds.

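Each compound was tested at five concentrations against cells in 96-well plates for 48 hours. The concentration for 50% growth inhibition is given as GI50. TGI is the concentration that stops growth completely.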

Some test systems named below: SF-268 CNS; MCF7 breast; COLO 205 colon; RPMI-8226 leukemia; KM12 colon; T-47D breast; MALME-3M melanoma; NCI-H226 lung; HT29 colon; SK-MEL-28 melanoma.
Common to all, as to assay: growth of human tumour cells (NCI), 48 h

As to `O=C1Cc2cc(CCn3cncn3)c(Cl)cc2N1`, the GI50 is 59.6 µM in the experiment with SF-268 CNS; 4.02 µM in the experiment on MCF7 breast; 23.3 µM in the experiment with COLO 205 colon; above 100 µM with RPMI-8226 leukemia; 5.42 µM in the experiment with KM12 colon; above 100 µM in the experiment with T-47D breast. The GI50 in the experiment on MALME-3M melanoma was above 100 µM; in the experiment on NCI-H226 lung, above 100 µM; in the experiment with HT29 colon it was above 100 µM; with SK-MEL-28 melanoma, 21 µM. Further, the TGI with SF-268 CNS, with MCF7 breast, in the experiment on COLO 205 colon, with RPMI-8226 leukemia, with KM12 colon and in the experiment on T-47D breast was above 100 µM each time. Also, the TGI in the experiment on MALME-3M melanoma, in the experiment on NCI-H226 lung, in the experiment with HT29 colon and in the experiment with SK-MEL-28 melanoma was above 100 µM throughout.

For `Cc1ccc(Cl)c(NS(=O)(=O)c2ccc(-c3cnc(C4CC4)o3)cc2)c1`, the GI50 in the experiment with SF-268 CNS was 3.33 µM; with MCF7 breast it was 0.0407 µM; in the experiment with COLO 205 colon, 0.154 µM; with RPMI-8226 leukemia, 0.318 µM; with KM12 colon, 0.07 µM; in the experiment with T-47D breast it was 0.0481 µM. Also, the GI50 in the experiment on MALME-3M melanoma was 11 µM; in the experiment on NCI-H226 lung, 1.03 µM; with HT29 colon, 0.0517 µM; with SK-MEL-28 melanoma, 2.77 µM. The TGI in the experiment on SF-268 CNS is above 66.3 µM; with MCF7 breast, 25.9 µM; with COLO 205 colon, 1.36 µM; in the experiment with RPMI-8226 leukemia it was 24.8 µM; with KM12 colon it was 22.4 µM; in the experiment on T-47D breast it was 67.9 µM. For the same compound, the TGI in the experiment with MALME-3M melanoma is 49.7 µM; with NCI-H226 lung, 28.1 µM; in the experiment with HT29 colon it was 16.2 µM; in the experiment on SK-MEL-28 melanoma, above 58.5 µM.

Take `CS(=O)(=O)c1cccc(Nc2ncc3cc(-c4ccccc4Cl)ccc3n2)c1`: the GI50 in the experiment with SF-268 CNS was 1.35 µM; with MCF7 breast, 1.37 µM; in the experiment on COLO 205 colon it was 1.19 µM; in the experiment on RPMI-8226 leukemia it was 1.47 µM; with KM12 colon, 1.2 µM; in the experiment with T-47D breast, 1.1 µM. Besides, the GI50 in the experiment on MALME-3M melanoma is 1.22 µM; in the experiment on NCI-H226 lung, 2.55 µM; with HT29 colon it was 1.01 µM; with SK-MEL-28 melanoma, 1.77 µM. Further, the TGI in the experiment with SF-268 CNS was above 33.3 µM; in the experiment on MCF7 breast, above 33.3 µM; with COLO 205 colon it was 3.13 µM; with RPMI-8226 leukemia, 21.4 µM; with KM12 colon it was above 33.3 µM; with T-47D breast, above 33.3 µM. The TGI in the experiment with MALME-3M melanoma is 9.84 µM; with NCI-H226 lung, 21.5 µM; in the experiment on HT29 colon it was 19.1 µM; in the experiment with SK-MEL-28 melanoma, above 33.3 µM.
